From US8163737B2 (Vertex Pharmaceuticals Incorporated, priority 2006, dated 2012)

What was measured:
[1] = target: T1, CGRP receptor (SK-N-MC membrane) (Homo sapiens, UniProt O60894+Q16602); experiment: I125-CGRP binding displacement assay on purified SK-N-MC membrane
T1 construct: Purified SK-N-MC membrane was purchased from Perkin Elmer; purchased Perkin Elmer; host or cells: SK-N-MC membrane
Procedure, shortened: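 Human SK-N-MC membranes incubated with compounds and I125-CGRP for 2 h at room temperature in 25 mM Tris-HCl pH 7.4, 5 mM MgCl2, 0.1% BSA, 0.05% Tween, then filtered and counted. Nonspecific binding defined with 1 uM unlabelled CGRP; percent displacement fitted to curves.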

endogenous CGRP receptor = endogenous CGRP receptor (Homo sapiens, UniProt O60894+Q16602); experiment: CGRP functional antagonism using SK-N-MC-BLA (4C10), β-lactamase transcriptional reporter assay; type: cell-based; conditions: SK-N-MC (4C10) cells, inhibition of β-lactamase expression in the presence of 200 pM CGRP
Chain of endogenous CGRP receptor (Q16602 23-461): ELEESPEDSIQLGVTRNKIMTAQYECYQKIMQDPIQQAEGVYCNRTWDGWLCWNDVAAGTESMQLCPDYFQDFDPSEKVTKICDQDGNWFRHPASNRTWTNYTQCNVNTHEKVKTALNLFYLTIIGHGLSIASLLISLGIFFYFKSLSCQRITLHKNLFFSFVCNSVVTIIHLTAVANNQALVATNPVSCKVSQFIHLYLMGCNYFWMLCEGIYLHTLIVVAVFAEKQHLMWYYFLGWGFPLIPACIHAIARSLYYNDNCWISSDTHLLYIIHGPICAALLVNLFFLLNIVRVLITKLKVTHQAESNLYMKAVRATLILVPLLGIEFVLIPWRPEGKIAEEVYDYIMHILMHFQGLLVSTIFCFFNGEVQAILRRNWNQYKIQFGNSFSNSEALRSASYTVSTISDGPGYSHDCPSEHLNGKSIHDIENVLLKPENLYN
Chain of endogenous CGRP receptor (O60894 27-148): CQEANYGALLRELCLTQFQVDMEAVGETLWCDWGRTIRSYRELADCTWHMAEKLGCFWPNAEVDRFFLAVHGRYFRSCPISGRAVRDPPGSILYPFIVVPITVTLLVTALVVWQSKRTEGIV

T1 sequence (Q16602 23-461): as the sequence (Q16602 23-461) above
T1 sequence (O60894 27-148): as the sequence (O60894 27-148) above

Ki [1]	IC50 (endogenous CGRP receptor)	SMILES
< 1 µM	1 to 5 µM	CN(C)[C@@H]1CCN(c2ccccc2C2SC(CC(=O)N3CCC(N4CCc5ccccc5NC4=O)CC3)C(=O)N2CCC(C)(C)C)C1 (stereo partly drawn) [Compound 405]
< 1 µM	< 1 µM	CN(C)[C@H]1CCN(c2ccccc2C2SC(CC(=O)N3CCC(N4CCc5ccccc5NC4=O)CC3)C(=O)N2CCC(C)(C)C)C1 (stereo partly drawn) [Compound 407]
< 1 µM	> 5 µM	CN(c1ccccc1C1SC(CC(=O)N2CCC(N3CCc4ccccc4NC3=O)CC2)C(=O)N1CCC(C)(C)C)[C@H]1CCN(Cc2ccccc2)C1 (stereo partly drawn) [Compound 409]
> 5 µM	1 to 5 µM	CC(C)(C)CCN1C(=O)C(CC(=O)N2CCC(N3CCc4ccccc4NC3=O)CC2)SC1c1ccccc1C1=CCNCC1 (stereo not drawn) [Compound 414]
< 1 µM	1 to 5 µM	CC(C)(C)CCN1C(=O)C(CC(=O)N2CCC(n3c(=O)[nH]c4ncccc43)CC2)SC1c1ccccc1N1CCC(O)CC1 (stereo not drawn) [Compound 415]
< 1 µM	< 1 µM	CC(C)N1CCN(c2c(F)cccc2[C@@H]2S[C@@](C)(CC(=O)N3CCC(N4CCc5ccccc5NC4=O)CC3)C(=O)N2CCC(C)(C)C)CC1 [Compound 431]
< 1 µM	< 1 µM	CC(C)N1CCN(c2c(F)cccc2[C@H]2S[C@@](C)(CC(=O)N3CCC(N4CCc5ccccc5NC4=O)CC3)C(=O)N2CCC(C)(C)C)CC1 [Compound 432]
< 1 µM	< 1 µM	CC(C)N1CCN(c2cccc(Cl)c2[C@H]2S[C@H](CC(=O)N3CCC(N4CCc5ccccc5NC4=O)CC3)C(=O)N2CCC(C)(C)C)CC1 [Compound 434]
< 1 µM	< 1 µM	CC(C)(C)CCN1C(=O)[C@H](CC(=O)N2CCC(n3c(=O)[nH]c4ncccc43)CC2)S[C@H]1c1cccc(F)c1N1CCN(C(C)(C)C)CC1 [Compound 436]
< 1 µM	< 1 µM	CC(C)(C)CCN1C(=O)[C@H](CC(=O)N2CCC(n3c(=O)[nH]c4ncccc43)CC2)SC1c1cccc(F)c1N1CCN(C(C)(C)C)CC1 (stereo partly drawn) [Compound 437]
< 1 µM	< 1 µM	CC(C)N1CCN(c2c(F)cccc2[C@H]2S[C@@](C)(CC(=O)N3CCC(n4c(=O)[nH]c5ncccc54)CC3)C(=O)N2CCC(C)(C)C)CC1 [Compound 446]
< 1 µM	< 1 µM	CC(C)(C)CCN1C(=O)[C@H](CC(=O)N2CCC(N3CC(=O)NC3=O)CC2)S[C@H]1c1cccc(F)c1N1CCN(C(C)(C)C)CC1 [Compound 447]
< 1 µM	1 to 5 µM	CN(C)C1CCN(c2c(F)cccc2[C@@H]2S[C@@H](CC(=O)N3CCC(n4c(=O)[nH]c5ncccc54)CC3)C(=O)N2CCC(C)(C)C)C1 (stereo partly drawn) [Compound 456]
< 1 µM	< 1 µM	CC(C)(C)CCN1C(=O)[C@H](CC(=O)N2CCC(O)(c3ccc(Br)cc3)CC2)SC1c1cccc(F)c1N1CCN(C(C)(C)C)CC1 (stereo partly drawn) [Compound 457]
< 1 µM	< 1 µM	CNC1CCN(c2c(F)cccc2[C@H]2S[C@@H](CC(=O)N3CCC(n4c(=O)[nH]c5ncccc54)CC3)C(=O)N2CCC(C)(C)C)C1 (stereo partly drawn) [Compound 458]
< 1 µM	< 1 µM	CNC1CCN(c2c(F)cccc2[C@@H]2S[C@@H](CC(=O)N3CCC(n4c(=O)[nH]c5ncccc54)CC3)C(=O)N2CCC(C)(C)C)C1 (stereo partly drawn) [Compound 459]
< 1 µM	< 1 µM	COc1ccc(C(=O)C2CCN(C(=O)C[C@@H]3SC(c4cccc(F)c4N4CCN(C(C)(C)C)CC4)N(CCC(C)(C)C)C3=O)CC2)cc1 (stereo partly drawn) [Compound 461]
< 1 µM	< 1 µM	CC(C)(C)CCN1C(=O)[C@H](CC(=O)N2CCC(n3c(=O)[nH]c4ncccc43)CC2)S[C@H]1c1cccc(F)c1N1CCC(O)C1 (stereo partly drawn) [Compound 462]
< 1 µM	1 to 5 µM	CC(C)(C)CCN1C(=O)[C@H](CC(=O)N2CCC(N3CCc4ccccc4NC3=O)CC2)SC1c1cccc(F)c1N1CCC(O)C1 (stereo partly drawn) [Compound 463]
< 1 µM	< 1 µM	CC(C)(C)CCN1C(=O)[C@H](CC(=O)N2CCC(N3Cc4ccccc4NC3=O)CC2)S[C@H]1c1cccc(F)c1N1CCC(O)C1 (stereo partly drawn) [Compound 469]
< 1 µM	< 1 µM	CC(C)(C)CCN1C(=O)[C@H](CC(=O)N2CCC(n3c(=O)[nH]c4ncccc43)CC2)S[C@H]1c1cccc(F)c1N1CCC(N)C1 (stereo partly drawn) [Compound 470]

Ki [1]	IC50 (endogenous CGRP receptor)	SMILES
< 1 µM	< 1 µM	CC(C)(C)CCN1C(=O)[C@H](CC(=O)N2CCC(N3CCc4ccccc4NC3=O)CC2)SC1c1cccc(F)c1N1CCC(N)C1 (stereo partly drawn) [Compound 471]
< 1 µM	1 to 5 µM	C[C@@H]1CN(c2c(F)cccc2[C@H]2S[C@@H](CC(=O)N3CCC(N4CCc5ccccc5NC4=O)CC3)C(=O)N2CCC(C)(C)C)C[C@H](C)N1 [Compound 474]
< 1 µM	> 5 µM	CN1CCN(c2ccccc2C2SC(CC(=O)N3CC(N4Cc5ccccc5NC4=O)C3)C(=O)N2CCC(C)(C)C)CC1 (stereo not drawn) [Compound 477]
< 1 µM	< 1 µM	CC(C)(C)CCN1C(=O)[C@H](CC(=O)N2CCC(N3CCc4ccccc4NC3=O)CC2)SC1c1cc(F)cc(F)c1N1CCN(C(C)(C)C)CC1 (stereo partly drawn) [Compound 478, (5S)-2-(2-(4-tert-Butylpiperazin-1-yl)-3,5-difluorophenyl)-3-(3,3-dimethylbutyl)-5-(2-oxo-2-(4-(2-oxo-4,5-dihydro-1H-benzo[d][1,3]diazepin-3(2H)-yl)piperidin-1-yl)ethyl)thiazolidin-4-one]
< 1 µM	1 to 5 µM	CC(C)(C)CCN1C(=O)[C@H](CC(=O)N2CCC(n3c(=O)[nH]c4ncccc43)CC2)SC1c1cccc(F)c1N1CCC(F)C1 (stereo partly drawn) [Compound 480]
< 1 µM	1 to 5 µM	CC(C)(C)CCN1C(=O)[C@H](CC(=O)N2CCC(N3CCc4ccccc4NC3=O)CC2)SC1c1cccc(F)c1N1CCC(F)C1 (stereo partly drawn) [Compound 481]
< 1 µM	1 to 5 µM	CC(C)(C)CCN1C(=O)[C@H](CC(=O)N2CCC(n3c(=O)[nH]c4ncccc43)CC2)SC1c1cccc(F)c1N1CCC(F)(F)C1 (stereo partly drawn) [Compound 482]
< 1 µM	> 5 µM	CC(C)(C)CCN1C(=O)[C@H](CC(=O)N2CCC(N3CCc4ccccc4NC3=O)CC2)SC1c1cccc(F)c1N1CCC(F)(F)C1 (stereo partly drawn) [Compound 483]
< 1 µM	< 1 µM	CC(C)(C)CCN1C(=O)[C@H](CC(=O)N2CCC(n3c(=O)[nH]c4ncccc43)CC2)SC1c1cccc(F)c1N1CCC(O)C1 (stereo partly drawn) [Compound 484]
< 1 µM	1 to 5 µM	CC(C)(C)CCN1C(=O)[C@H](CC(=O)N2CCC(N3CCc4ccccc4NC3=O)CC2)SC1c1cccc(F)c1N1CC[C@H](O)C1 (stereo partly drawn) [Compound 485]
< 1 µM	< 1 µM	CC(C)(C)CCN1C(=O)[C@H](CC(=O)N2CCC(N3CCc4ccccc4NC3=O)CC2)SC1c1cccc(F)c1N1CC[C@H](O)C1 (stereo partly drawn) [Compound 486]
< 1 µM	< 1 µM	CC(C)(C)CCN1C(=O)[C@H](CC(=O)N2CCC(N3CCc4ccccc4NC3=O)CC2)SC1c1cccc(F)c1N1CC[C@@H](O)C1 (stereo partly drawn) [Compound 487]
< 1 µM	< 1 µM	CC(C)(C)N1CCN(c2c(F)cccc2[C@@H]2S[C@@H](CC(=O)N3CCC(N4CCc5ccccc5NC4=O)CC3)C(=O)N2CC2CC2)CC1 [Compound 488]
< 1 µM	> 5 µM	CC(C)(C)CCN1C(=O)[C@H](CC(=O)N2CCC(N3CCc4ccccc4NC3=O)CC2)SC1c1ccn(C2CCN(C(=O)OC(C)(C)C)CC2)n1 (stereo partly drawn) [Compound 490]
< 1 µM	< 1 µM	CC(C)(C)CCN1C(=O)[C@H](CC(=O)N2CCC(N3CCc4ccccc4NC3=O)CC2)SC1c1ccn(C2CCNCC2)n1 (stereo partly drawn) [Compound 491]
< 1 µM	1 to 5 µM	CC(C)(C)CCN1C(=O)[C@H](CC(=O)N2CCC(N3CCc4ccccc4NC3=O)CC2)SC1c1cnc(C2CCN(C(=O)OC(C)(C)C)CC2)s1 (stereo partly drawn) [Compound 492, tert-Butyl 4-(5-((5S)-3-(3,3-dimethylbutyl)-4-oxo-5-(2-oxo-2-(4-(2-oxo-4,5-dihydro-1H-benzo[d][1,3]diazepin-3(2H)-yl)piperidin-1-yl)ethyl)thiazolidin-2-yl)thiazol-2-yl)piperidine-1-carboxylate]
< 1 µM	< 1 µM	CC(C)CN1C(=O)[C@H](CC(=O)N2CCC(N3CCc4ccccc4NC3=O)CC2)SC1c1cccc(F)c1N1CCN(C(C)(C)C)CC1 (stereo partly drawn) [Compound 493]
< 1 µM	< 1 µM	CC(C)CN1C(=O)[C@H](CC(=O)N2CCC(N3CCc4ccccc4NC3=O)CC2)SC1c1cccc(F)c1N1CCN(C(C)(C)C)CC1 (stereo partly drawn) [Compound 494]
< 1 µM	< 1 µM	CC(C)CN1C(=O)[C@H](CC(=O)N2CCC(n3c(=O)[nH]c4ncccc43)CC2)S[C@@H]1c1cccc(F)c1N1CCN(C(C)(C)C)CC1 [Compound 495]
< 1 µM	< 1 µM	CC(C)CN1C(=O)[C@H](CC(=O)N2CCC(n3c(=O)[nH]c4ncccc43)CC2)S[C@H]1c1cccc(F)c1N1CCN(C(C)(C)C)CC1 [Compound 496]
< 1 µM	< 1 µM	CC(C)(C)CCN1C(=O)[C@H](CC(=O)N2CCC(N3CCc4ccccc4NC3=O)CC2)SC1c1cnc(C2CCNCC2)s1 (stereo partly drawn) [Compound 497, (5S)-3-(3,3-Dimethylbutyl)-5-(2-oxo-2-(4-(2-oxo-4,5-dihydro-1H-benzo[d][1,3]diazepin-3(2H)-yl)piperidin-1-yl)ethyl)-2-(2-(piperidin-4-yl)thiazol-5-yl)thiazolidin-4-one]
